Activity calls are given as the source filed them. How the calls were made is not given here.

The series concerns GENE-TOX genotoxicity assays, various organisms and cells. Briefly: GENE-TOX mutagenicity studies. Conditions: for call: Assay Type: In vivo carcinogenicity studies.
Where [1] appears, read: Species/Cell Type: Drosophila melanogaster, Assay Type: Sex-linked recessive lethal gene mutation, Assay Code: SRL+, Evaluation Type: Evaluation A (Pre-1980).
[2] abbreviates: Species/Cell Type: Mouse lymphoma (L5178Y) cells, Assay Type: Forward gene mutation at the thymidine kinase (TK) locus, chromosome aberrations, Assay Code: L51+, Evaluation Type: Evaluation A (Pre-1980).
Setting [3] is: Species/Cell Type: Nonhuman, Assay Code: CCG+, Evaluation Type: Evaluation A (Pre-1980).
Setting [4] is: Species/Cell Type: Saccharomyces cerevisiae, Assay Type: Mitotic recombination or gene conversion, Assay Code: YEH+, Evaluation Type: Evaluation A (Pre-1980).
Setting [5] is: Species/Cell Type: Salmonella typhimurium (one or more of the five standard strains: TA98, TA100, TA1535, TA1537, and TA1538), Assay Type: Histidine reverse gene mutation, Ames assay, Assay Code: SAL+, Evaluation Type: Evaluation A (Pre-1980).
Setting [6] is: Species/Cell Type: Bacillus subtilis (H17 vs M45), Assay Type: Rec-assay, spot test, DNA effects (bacterial DNA repair), Assay Code: REWT, Evaluation Type: Evaluation A (Pre-1980).
Where [7] appears, read: Species/Cell Type: Salmonella typhimurium (one or more of the five standard strains: TA98, TA100, TA1535, TA1537, and TA1538), Assay Type: Histidine reverse gene mutation, Ames assay, Assay Code: SAL-, Evaluation Type: Evaluation A (Pre-1980).
Setting [8] is: Species/Cell Type: Escherichia coli polA (W3119 vs P3478), Assay Type: Rec-assay, DNA effects (bacterial DNA repair), Assay Code: RE1T, Evaluation Type: Evaluation A (Pre-1980).
Where [9] appears, read: Species/Cell Type: Human, Assay Type: Sister-chromatid exchange (SCE) in vitro, Assay Code: SC1+D, Dose Response: With dose response, Evaluation Type: Evaluation B (Post-1980).
[10] abbreviates: Species/Cell Type: Nonhuman, Assay Code: CCGT, Evaluation Type: Evaluation A (Pre-1980).
Setting [11] is: Species/Cell Type: Human lymphocytes, Assay Type: Sister-chromatid exchange (SCE) in vitro, Assay Code: SCL+D, Dose Response: With dose response, Evaluation Type: Evaluation B (Post-1980).

Turning to `O=c1[nH]cc(N(CCCl)CCCl)c(=O)[nH]1`, the mutagenic call was “active; positive” under setting [1]; “active; positive” (Species/Cell Type: Escherichia coli polA (W3119 vs P3478), Assay Type: Rec-assay, DNA effects (bacterial DNA repair), Assay Code: RE1+, Evaluation Type: Evaluation A (Pre-1980)); “active; positive” (Species/Cell Type: Fischer rat embryo (RLV/1706) cells, Assay Type: Cell transformation, viral enhanced, Assay Code: CTR+, Evaluation Type: Evaluation A (Pre-1980)); “inactive; negative” (Species/Cell Type: Mouse (BALB/c-3T3) cells, Assay Type: Cell transformation, Assay Code: CTB-, Evaluation Type: Evaluation A (Pre-1980)); “active; positive” under setting [2]; “active; positive” under setting [4]. Also, the mutagenic call is, setting by setting: under setting [5], “active; positive”; (Species/Cell Type: Salmonella typhimurium, Assay Type: Forward and reverse gene mutation, host-mediated assay, Assay Code: HMA+, Evaluation Type: Evaluation A (Pre-1980)) “active; positive”. Also, the call under setting [3] was “active; positive”.

In the case of `Cc1cc2ccccc2oc1=O`, the mutagenic call (Species/Cell Type: Allium cepa, Assay Type: Chromosome aberrations, Assay Code: ALC+D, Dose Response: With dose response, Evaluation Type: Evaluation A (Pre-1980)) was “active; positive”.

On to `[As]`, for which the mutagenic call (Species/Cell Type: Human lymphocytes, Assay Type: Sister-chromatid exchange (SCE) in vivo, Assay Code: SCY+, Evaluation Type: Evaluation B (Post-1980)) was “active; positive”.

`Cc1cc(C)c(N=Nc2c(O)c(S(=O)(=O)O)cc3cc(S(=O)(=O)O)ccc23)cc1C`: the mutagenic call was “no conclusion” under setting [6]; “no conclusion” (Species/Cell Type: Bacillus subtilis (H17 vs M45T), Assay Type: Rec-assay, spot test, DNA effects (bacterial DNA repair), Assay Code: REXT, Evaluation Type: Evaluation A (Pre-1980)); “inactive; negative” (Species/Cell Type: Saccharomyces cerevisiae, Assay Type: Mitotic recombination or gene conversion, Assay Code: YEC-, Evaluation Type: Evaluation A (Pre-1980)); “inactive; negative” under setting [7]. Also, under setting [3], the call is “active; positive”.

For the compound `COP(=O)(OC)O/C(C)=C/C(=O)OC(C)c1ccccc1` (configuration not stated), the mutagenic call reads like this: under setting [6], “no conclusion”; (Species/Cell Type: Escherichia coli WP2 UVRA, Assay Type: Tryptophan reverse gene mutation, Assay Code: WPU-*, Activation: With metabolic activation, Evaluation Type: Evaluation A (Pre-1980)) “inactive; negative”; under setting [8], “no conclusion”; (Species/Cell Type: Human diploid fibroblasts, Assay Type: Unscheduled DNA synthesis (UDS) in vitro, DNA effects, Assay Code: UDH-, Evaluation Type: Evaluation A (Pre-1980)) “inactive; negative”; under setting [4], “active; positive”; under setting [7], “inactive; negative”.

Regarding `C=Cc1cn([C@H]2C[C@H](O)[C@@H](CO)O2)c(=O)[nH]c1=O`, the mutagenic call (Species/Cell Type: Human lymphocytes, Assay Type: Sister-chromatid exchange (SCE) in vitro, Assay Code: SCL+, Evaluation Type: Evaluation B (Post-1980)) was “active; positive” and the mutagenic call under setting [9] was “active; positive”.

Regarding `Cc1ccc2cc3c(c4c2c1CC4)C1OC1c1ccccc1-3` (configuration not stated), the mutagenic call reads like this: (Species/Cell Type: Chinese hamster lung (V79) cells, Assay Type: Forward gene mutation at the HPRT or ouabain locus, Assay Code: V79+, Evaluation Type: Evaluation A (Pre-1980)) “active; positive”; under setting [1], “active; positive”; (Species/Cell Type: Mouse prostate cells, Assay Type: Cell transformation, Assay Code: CTM+, Evaluation Type: Evaluation A (Pre-1980)) “active; positive”; (Species/Cell Type: Syrian hamster embryo (SHE) cells, Assay Type: Cell transformation, clonal assay, Assay Code: CTC+, Evaluation Type: Evaluation A (Pre-1980)) “active; positive”. For the same compound, the call under setting [10] is “no conclusion”.

As to `CCN(CC)CCn1nc2c3c(c(C)ccc31)Sc1ccccc1-2`, the mutagenic call reads like this: under setting [1], “active; positive”; under setting [2], “active; positive”; (Species/Cell Type: Neurospora crassa, Assay Type: Forward gene mutation, Assay Code: NEF+, Evaluation Type: Evaluation A (Pre-1980)) “active; positive”.

Turning to `COC(=O)Nc1nc2ccccc2[nH]1`, the mutagenic call (Species/Cell Type: Allium cepa, Assay Type: Chromosome aberrations, Assay Code: ALC+, Evaluation Type: Evaluation A (Pre-1980)) is “active; positive”; the mutagenic call (Species/Cell Type: Aspergillus nidulans, Assay Type: Aneuploidy, chromosome aberrations, Assay Code: ASN+, Evaluation Type: Evaluation A (Pre-1980)) is “active; positive”; the mutagenic call (Species/Cell Type: Aspergillus nidulans, Assay Type: Mitotic recombination, Assay Code: ASGT, Evaluation Type: Evaluation A (Pre-1980)) is listed as “no conclusion”; the mutagenic call under setting [11] is “active; positive”; the mutagenic call under setting [9] is “active; positive”; the mutagenic call (Species/Cell Type: Mouse, Sex: Female, Assay Type: Spot test, gene mutation, Assay Code: MST+, Evaluation Type: Evaluation A (Pre-1980)) is “active; positive”. For the same compound, the mutagenic call is, setting by setting: (Species/Cell Type: Saccharomyces cerevisiae, Assay Type: Mitotic recombination or gene conversion, Assay Code: YEC+, Evaluation Type: Evaluation A (Pre-1980)) “active; positive”; under setting [4], “active; positive”.

For the compound `Cl[Se][Se]Cl`, the mutagenic call (Species/Cell Type: Syrian hamster embryo (SA7/SHE) cells, Assay Type: Cell transformation, viral enhanced, Assay Code: CT7T, Evaluation Type: Evaluation A (Pre-1980)) is on record as “no conclusion”.

Regarding `COC(=O)C1=CCCN(C)C1`, the mutagenic call reads like this: (Species/Cell Type: Mammalian polychromatic erythrocytes, Assay Type: Micronucleus test, chromosome aberrations, Assay Code: MNT+U, Dose Response: Unconfirmed positive response, Evaluation Type: Evaluation B (Post-1980)) “active; positive”; (Species/Cell Type: Nonhuman, Assay Type: Sister-chromatid exchange (SCE) in vivo, Assay Code: SC3+, Evaluation Type: Evaluation B (Post-1980)) “active; positive”.

`O[C@H]1[C@@H]2O[C@@H]2c2cc3ccc4cccc5ccc(c2[C@@H]1O)c3c45`: the mutagenic call (Species/Cell Type: Mouse prostate cells, Assay Type: Cell transformation, Assay Code: CTM-, Evaluation Type: Evaluation A (Pre-1980)) was “inactive; negative”.

Consider `C=Cc1cccc(C)c1`, for which the mutagenic call was “active; positive” under setting [11] and “active; positive” under setting [9].

As for `Cc1c2ccccc2c(C)c2c1ccc1ccc(O)cc12`, the mutagenic call (Species/Cell Type: Chinese hamster lung (V79) cells, Assay Type: Forward gene mutation at the HPRT or ouabain locus, Assay Code: V79-*, Activation: With metabolic activation, Evaluation Type: Evaluation A (Pre-1980)) is “inactive; negative”. Besides, the call under setting [10] is on record as “no conclusion”.

For the compound `CN[C@@H]1[C@H](O[C@H]2[C@H](O[C@H]3[C@H](O)[C@@H](O)[C@H](N=C(N)N)[C@@H](O)[C@@H]3N=C(N)N)O[C@@H](C)[C@]2(O)CO)O[C@@H](CO)[C@H](O)[C@H]1O`, for the setting “Species/Cell Type: Vicia faba, Assay Type: Chromosome aberrations, Assay Code: VIC-, Evaluation Type: Evaluation A (Pre-1980)”, the mutagenic call was “inactive; negative”.

Consider `Cc1nc2ccc([N+](=O)[O-])cc2[nH]1`, for which the mutagenic call under setting [5] is “active; positive”.

In the case of `COP(=O)(OC)C(O)C(Cl)(Cl)Cl` (configuration not stated), the mutagenic call under setting [6] is listed as “no conclusion”; the mutagenic call (Species/Cell Type: Drosophila melanogaster, Assay Type: Sex-linked recessive lethal gene mutation, Assay Code: SRL-, Evaluation Type: Evaluation A (Pre-1980)) is “inactive; negative”; the mutagenic call (Species/Cell Type: Escherichia coli WP2 UVRA, Assay Type: Tryptophan reverse gene mutation, Assay Code: WPU+D, Dose Response: With dose response, Evaluation Type: Evaluation A (Pre-1980)) is “active; positive”; the mutagenic call under setting [8] is on record as “no conclusion”; the mutagenic call (Species/Cell Type: Human diploid fibroblasts, Assay Type: Unscheduled DNA synthesis (UDS) in vitro, DNA effects, Assay Code: UDH+/-*, Activation: With metabolic activation, Evaluation Type: Evaluation A (Pre-1980)) is “inactive; positive without activation, negative with activation”; the mutagenic call (Species/Cell Type: Mammalian polychromatic erythrocytes, Assay Type: Micronucleus test, chromosome aberrations, Assay Code: MNTT, Evaluation Type: Evaluation A (Pre-1980)) is “no conclusion”. Moreover, the mutagenic call runs as follows: (Species/Cell Type: Nonhuman, Assay Type: Sister-chromatid exchange (SCE) in vitro, Assay Code: SC2+D*, Activation: With metabolic activation, Dose Response: With dose response, Evaluation Type: Evaluation B (Post-1980)) “active; positive”; under setting [4], “active; positive”; under setting [5], “active; positive”; (Species/Cell Type: Salmonella typhimurium, Assay Type: Forward and reverse gene mutation, body fluid assay, Assay Code: BFU+, Evaluation Type: Evaluation A (Pre-1980)) “active; positive”.

Take `CCCCN(CC(C)=O)N=O`: the mutagenic call (Species/Cell Type: Salmonella typhimurium (one or more of the five standard strains: TA98, TA100, TA1535, TA1537, and TA1538), Assay Type: Histidine reverse gene mutation, Ames assay, Assay Code: SAL+*, Activation: With metabolic activation, Evaluation Type: Evaluation A (Pre-1980)) was “active; positive”.

In the case of `CN1CCC=C(C(=O)O)C1`, for the setting “Species/Cell Type: Mammalian polychromatic erythrocytes, Assay Type: Micronucleus test, chromosome aberrations, Assay Code: MNTT, Evaluation Type: Evaluation B (Post-1980)”, the mutagenic call is “no conclusion”.

Values taken from PubChem BioAssay AID1259408 (Genetic Toxicology Data Bank (GENE-TOX), 2018).
